- melting point: 237.5 to 238.5 °C
SMILES: CC12CCC3C(CC[C@H]4NC(=O)CCC34C)C1CC[C@@H]2OC1CC1 (stereo partly drawn) [MDL 103,432, 17β-Cyclopropyloxy-4-aza-5α-androstan-3-one]

Reference: patent US6365597B1, “4-aza steroids” (Aventis Pharmaceuticals Inc., priority 1996, dated 2002)
